The source of these data is ChEMBL document CHEMBL1142501, “PASS-assisted exploration of antidepressant activity of 1,3,4-trisubstituted-beta-lactam derivatives” (Bioorg Med Chem Lett, 2008).

What all share (format): functional, organism-based
Assay [1] deals with Mus musculus. The assay can be described thus: Antidepressant activity against dark-induced depression in Albino Swiss mouse assessed as decrease in immobility period at 15 mg/kg, ip once daily for 4 days and 30 mins before test on day 5 by forced swimming test. Details: dose 15 mg/kg.
For assay [2], the system named is Mus musculus. The assay can be described thus: Antidepressant activity against dark-induced depression in Albino Swiss mouse assessed as increase in brain serotonin level at 15 mg/kg, ip once daily for 4 days and 30 mins before test on day 5. Also on record: dose 15 mg/kg.
Assay [3] deals with Mus musculus. The assay can be described thus: Antidepressant activity against dark-induced depression in Albino Swiss mouse assessed as decrease in immobility period at 30 mg/kg, ip once daily for 4 days and 30 mins before test on day 5 by forced swimming test. Details: dose 30 mg/kg.
In assay [4] the test system is Mus musculus. The assay can be described thus: Antidepressant activity against dark-induced depression in Albino Swiss mouse assessed as increase in brain serotonin level at 20 mg/kg, ip once daily for 4 days and 30 mins before test on day 5. Details: dose 20 mg/kg.
For assay [5], the system named is Mus musculus. The experiment in a line: Antidepressant activity against dark-induced depression in Albino Swiss mouse assessed as decrease in immobility period at 20 mg/kg, ip once daily for 4 days and 30 mins before test on day 5 by forced swimming test. Also on record: dose 20 mg/kg.

Calls of active or inactive are those of the source. The calls are words filed in the database; no cut-off is given here.

As for `Cc1ccc(N2C(=O)[C@@H]3[C@H]([C@H]4C(=O)N(C5CCCCC5)[C@H]4c4ccc(Cl)cc4)C=CC[C@@H]3C2=O)cc1`, the outcome with Mus musculus [1], in the assay on Mus musculus [2] and with Mus musculus [3] was inactive.

Take `CNCCC(Oc1ccc(C(F)(F)F)cc1)c1ccccc1` (stereo not given): the result in the assay on Mus musculus [4] and in the assay on Mus musculus [5] was Active.

As to `COc1ccc([C@@H]2[C@@H]([C@@H]3C=CC[C@@H]4C(=O)N(c5ccccc5)C(=O)[C@H]34)C(=O)N2c2ccccc2)cc1`, the outcome in the assay on Mus musculus [4], with Mus musculus [1], in the assay with Mus musculus [2] and in the assay on Mus musculus [3] was Active.

On to `O=C1OC(=O)[C@H]2CC=C[C@@H]([C@H]3C(=O)N(c4ccccc4)[C@@H]3c3ccccc3)[C@@H]12`, for which the outcome in the assay with Mus musculus [1], in the assay with Mus musculus [2] and with Mus musculus [3] was Active.

With `O=C1C=CC(=O)[C@H]2CC=C[C@@H]([C@H]3C(=O)N(C4CCCCC4)[C@H]3c3ccccc3)[C@@H]12`, the result in the assay with Mus musculus [1], in the assay on Mus musculus [2] and with Mus musculus [3] was Active.
